Results taken from patent US8338565B2, “Macrocyclic compounds for inhibition of tumor necrosis factor alpha” (Ensemble Therapeutics Corporation, priority 2008, dated 2012).
Read-outs that look alike come from different tables or passages of the source. Numbered stars: 1 amine (or outer) side, 2 acyl side, 3 side chain; on linkers, the order of the positions; unused ones are H or OH. Bridge positions count the residues as written; N and C are the ends. Square brackets hold non-standard residues; d marks the D form. Peptide text beside a SMILES is read from it. * marks the point of attachment. Tartaroyl(2R,3R-(OAc)2) = CC(=O)O[C@@H](C(=O)[*:1])[C@@H](OC(C)=O)C(=O)[*:2]; Phe(4-CF3) = N[C@@H](Cc1ccc(C(F)(F)F)cc1)C(=O)O; Phe(4-COOH) = N[C@@H](Cc1ccc(C(=O)O)cc1)C(=O)O; Phe(4-tBu) = CC(C)(C)c1ccc(C[C@H](N)C(=O)O)cc1; Phe(2,4-Cl2) = N[C@@H](Cc1ccc(Cl)cc1Cl)C(=O)O; Bip = N[C@@H](Cc1ccc(-c2ccccc2)cc1)C(=O)O; dPhe(4-NH2) = Nc1ccc(C[C@@H](N)C(=O)O)cc1; dPhe(4-Br) = N[C@H](Cc1ccc(Br)cc1)C(=O)O; Phe(4-NH2) = Nc1ccc(C[C@H](N)C(=O)O)cc1; dAla(2-furyl) = N[C@H](Cc1ccco1)C(=O)O; dPhe(2-Cl) = N[C@H](Cc1ccccc1Cl)C(=O)O; Maleoyl = O=C(/C=C\C(=O)[*:2])[*:1]; d(hPhe) = N[C@H](CCc1ccccc1)C(=O)O; hPhe = N[C@@H](CCc1ccccc1)C(=O)O; 4Pal = N[C@@H](Cc1ccncc1)C(=O)O; Malonyl = O=C(CC(=O)[*:2])[*:1]; 2Thi = N[C@@H](Cc1cccs1)C(=O)O; Cha = N[C@@H](CC1CCCCC1)C(=O)O; d2Thi = N[C@H](Cc1cccs1)C(=O)O; Suc = O=C(CCC(=O)[*:2])[*:1]; Dap = NC[C@H](N)C(=O)O; Bn = c1ccc(C*)cc1

Target: T1, TNFα / TNFα receptor (TNFα R1/Fc) (Homo sapiens, UniProt P01375)
T1 construct: purchased R&D Systems
T1 sequence (P01375 77-233 limits assumed, species assumed): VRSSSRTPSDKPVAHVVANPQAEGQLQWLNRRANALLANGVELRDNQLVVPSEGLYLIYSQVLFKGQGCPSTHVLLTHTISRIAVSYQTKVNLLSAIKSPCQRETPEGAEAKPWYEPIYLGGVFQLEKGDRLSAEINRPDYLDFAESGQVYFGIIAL
Assay: Inhibition of binding of TNFα to the TNFα receptor (plate ELISA competition)
Conditions: Table 2
In short: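 Compound dilutions were preincubated 30 min at RT with 8.33 nM TNFα R1/Fc in PBST with 2% DMSO, then added to wells coated with 15 nM TNFα for 30 min. Bound receptor was detected with HRP anti-human Fc and TMB, read as A450.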

[1] = read-out: Activity (IC50, inhibition of TNFα binding to TNFα R1/Fc)
[2] = Activity (IC50, inhibition of TNFα binding to TNFα R1/Fc)

| IC50 [1] [µM] | Structure (SMILES) | IC50 [2] [µM] |
| --- | --- | --- |
| 10 to 30 | O=C1CCC(=O)N[C@H](CCc2ccccc2)C(=O)N[C@@H](Cc2ccc(OCc3ccccc3)cc2)C(=O)N[C@H](Cc2ccccc2)C(=O)N[C@@H](C(=O)O)Cc2ccc(cc2)N1 [Compound 173] ([d(hPhe)]Y(Bn)[dF][dPhe(4-NH2)]-OH; linker N-4 via Suc) | – |
| > 100 | CC(=O)O[C@H]1C(=O)Nc2ccc(cc2)C[C@@H](C(=O)N[C@@H](Cc2ccccc2)C(=O)O)NC(=O)[C@H](CCc2ccccc2)NC(=O)[C@@H](Cc2ccc(Br)cc2)NC(=O)[C@H](Cc2cccs2)NC(=O)[C@@H]1OC(C)=O [Compound 416] ([2Thi][dPhe(4-Br)][hPhe][Phe(4-NH2)]F-OH; linker N-4 via Tartaroyl(2R,3R-(OAc)2)) | – |
| > 100 | N[C@@H]1CC(=O)Nc2ccc(cc2)C[C@@H](C(=O)O)NC(=O)[C@@H](Cc2ccccc2)NC(=O)[C@H](Cc2ccc(-c3ccccc3)cc2)NC(=O)[C@@H](Cc2cccs2)NC1=O [Compound 372] (H-[dD][d2Thi][Bip][dF][Phe(4-NH2)]-OH; lactam 1-5) | – |
| > 100 | O=C1COc2ccc(cc2)C[C@@H](C(=O)O)NC(=O)[C@@H]2CCCN2C(=O)[C@H](Cc2ccc(-c3ccccc3)cc2)NC(=O)[C@H](Cc2cccs2)N1 [Compound 255] | – |
| > 100 | CC(=O)O[C@H]1C(=O)Nc2ccc(cc2)C[C@H](C(=O)O)NC(=O)[C@@H](Cc2ccccc2)NC(=O)[C@H](Cc2ccc(Cl)cc2Cl)NC(=O)[C@@H](Cc2cccs2)NC(=O)[C@@H]1OC(C)=O [Compound 234] ([d2Thi][Phe(2,4-Cl2)][dF][dPhe(4-NH2)]-OH; linker N-4 via Tartaroyl(2R,3R-(OAc)2)) | – |
| > 100 | CC(C)(C)c1ccc(C[C@@H]2NC(=O)[C@@H](Cc3cccs3)NC(=O)CCC(=O)Nc3ccc(cc3)C[C@@H](C(=O)O)NC(=O)[C@@H](Cc3ccccc3)NC2=O)cc1 [Compound 90] ([d2Thi][Phe(4-tBu)][dF][Phe(4-NH2)]-OH; linker N-4 via Suc) | – |
| > 100 | O=C1COc2ccc(cc2)C[C@@H](C(=O)O)NC(=O)[C@H](Cc2ccccc2)NC(=O)[C@H](Cc2ccc(Br)cc2)NC(=O)[C@H](Cc2cccs2)N1 [Compound 359] | – |
| > 100 | O=C(O)[C@@H]1Cc2ccc(cc2)NC(=O)[C@H](O)[C@@H](O)C(=O)N[C@H](Cc2cccs2)C(=O)N[C@H](Cc2ccc(-c3ccccc3)cc2)C(=O)N[C@@H](Cc2ccccc2)C(=O)N1 [Compound 274] | – |
| 30 to 100 | O=C1CCC(=O)N[C@H](Cc2ccco2)C(=O)N[C@@H](Cc2ccc(-c3ccccc3)cc2)C(=O)N[C@H](Cc2ccccc2)C(=O)N[C@H](C(=O)O)Cc2ccc(cc2)N1 [Compound 123] ([dAla(2-furyl)][Bip][dF][Phe(4-NH2)]-OH; linker N-4 via Suc) | – |
| > 100 | O=C1CCC(=O)N[C@H](Cc2cccs2)C(=O)N[C@@H](Cc2ccc(-c3ccccc3)cc2)C(=O)N[C@H](CO)C(=O)N[C@H](C(=O)O)Cc2ccc(cc2)N1 [Compound 61] ([d2Thi][Bip][dS][Phe(4-NH2)]-OH; linker N-4 via Suc) | – |
| > 100 | CC(=O)N[C@H]1CNC(=O)c2ccc(cc2)C[C@@H](C(=O)O)NC(=O)[C@@H](Cc2ccccc2)NC(=O)[C@H](Cc2ccc(-c3ccccc3)cc2)NC(=O)[C@@H](CCc2ccccc2)NC1=O [Compound 266] (Ac-[Dap][d(hPhe)][Bip][dF][Phe(4-COOH)]-OH; lactam 1-5) | – |
| 10 to 30 | O=C1COc2ccc(cc2)C[C@H](C(=O)O)NC(=O)[C@H](Cc2ccccc2F)NC(=O)[C@@H](Cc2ccc(-c3ccccc3)cc2)NC(=O)[C@H](Cc2c[nH]c3ccccc23)N1 [Compound 728] | – |
| 30 to 100 | O=C1COc2ccc(cc2)C[C@@H](C(=O)O)NC(=O)[C@H](Cc2ccccc2)NC(=O)[C@H](Cc2ccc(-c3ccc(Cl)cc3)cc2)NC(=O)[C@H](Cc2cccs2)N1 [Compound 365] | – |
| < 10 | O=C1COc2ccc(cc2)C[C@@H](C(=O)O)NC(=O)[C@H](CCc2ccccc2)NC(=O)[C@@H](Cc2ccc(-c3ccccc3)cc2)NC(=O)[C@H](CCc2ccccc2)N1 [Compound 513] | – |
| 10 to 30 | O=C1COc2ccc(cc2)C[C@@H](C(=O)O)NC(=O)[C@H](CCc2ccccc2)NC(=O)[C@@H](Cc2ccc(-c3ccccc3)cc2)NC(=O)[C@H](Cc2cccc(C(F)(F)F)c2)N1 [Compound 690] | – |
| 10 to 30 | O=C(O)[C@H](Cc1ccccc1)NC(=O)[C@H]1Cc2ccc(cc2)NC(=O)[C@H](O)[C@@H](O)C(=O)N[C@H](Cc2cccs2)C(=O)N[C@@H](Cc2ccc(-c3ccccc3)cc2)C(=O)N[C@H](Cc2ccccc2)C(=O)N1 [Compound 430] | – |
| 10 to 30 | NCCCC[C@H](NC(=O)[C@@H]1Cc2ccc(cc2)NC(=O)CCC(=O)N[C@H](CCc2ccccc2)C(=O)N[C@@H](Cc2ccc(-c3ccccc3)cc2)C(=O)N[C@H](Cc2ccccc2)C(=O)N1)C(=O)O [Compound 295] ([d(hPhe)][Bip][dF][Phe(4-NH2)]K-OH; linker N-4 via Suc) | – |
| – | O=C1COc2ccc(cc2)C[C@@H](C(=O)N[C@H](Cc2ccccc2)C(=O)O)NC(=O)[C@H](CCc2ccccc2)NC(=O)[C@@H](Cc2ccc(-c3ccccc3)cc2)NC(=O)[C@H](Cc2cccs2)N1 [Compound 480] | 10 to 30 |
| – | O=C1COc2ccc(cc2)C[C@@H](C(=O)N[C@@H](Cc2ccccc2)C(=O)O)NC(=O)[C@H](CCc2ccccc2)NC(=O)[C@@H](Cc2ccc(-c3ccccc3)cc2)NC(=O)[C@H](Cc2ccncc2)N1 [Compound 554] | < 10 |

| IC50 [1] [µM] | Structure (SMILES) | IC50 [2] [µM] |
| --- | --- | --- |
| < 10 | O=C1COc2ccc(cc2)C[C@@H](C(=O)NC2(C(=O)O)CC2)NC(=O)[C@H](CCc2ccccc2)NC(=O)[C@@H](Cc2ccc(-c3ccccc3)cc2)NC(=O)[C@H](Cc2cccs2)N1 [Compound 478] | – |
| 30 to 100 | O=C1COc2ccc(cc2)C[C@@H](C(=O)O)NC(=O)[C@@H](CCc2ccccc2)NC(=O)[C@H](Cc2ccc(Cl)cc2Cl)NC(=O)[C@@H](Cc2cccs2)N1 [Compound 147] | – |
| > 100 | O=C1CCC(=O)N[C@H](Cc2cccs2)C(=O)N[C@@H](CCc2ccccc2)C(=O)N[C@H](Cc2ccccc2)C(=O)N[C@H](C(=O)O)Cc2ccc(cc2)N1 [Compound 91] ([d2Thi][hPhe][dF][Phe(4-NH2)]-OH; linker N-4 via Suc) | – |
| < 10 | O=C1COc2ccc(cc2)C[C@@H](C(=O)N[C@H](Cc2ccccc2)C(=O)O)NC(=O)[C@H](CCc2ccccc2)NC(=O)[C@@H](Cc2ccc(-c3ccccc3)cc2)NC(=O)[C@H](Cc2ccc(-c3ccccc3)cc2)N1 [Compound 573] | – |
| > 100 | O=C1COc2ccc(cc2)C[C@@H](C(=O)O)NC(=O)[C@H](Cc2ccccc2)NC(=O)[C@@H](Cc2cccc(Cl)c2)NC(=O)[C@H](Cc2cccs2)N1 [Compound 356] | – |
| 10 to 30 | O=C1COc2ccc(cc2)C[C@H](C(=O)O)NC(=O)[C@H](Cc2c[nH]c3ccccc23)NC(=O)[C@@H](Cc2ccc(-c3ccccc3)cc2)NC(=O)[C@H](Cc2c[nH]c3ccccc23)N1 [Compound 731] | – |
| < 10 | O=C1/C=C\C(=O)N[C@@H](CC2CCCCC2)C(=O)N[C@@H](Cc2ccc(-c3ccccc3)cc2)C(=O)N[C@H](CCc2ccccc2)C(=O)N[C@H](C(=O)O)Cc2ccc(cc2)N1 [Compound 197] ([Cha][Bip][d(hPhe)][Phe(4-NH2)]-OH; linker N-4 via Maleoyl) | – |
| > 100 | O=C1COc2ccc(cc2)C[C@@H](C(=O)O)NC(=O)[C@H](Cc2ccccc2)NC(=O)[C@@H](Cc2cccc3ccccc23)NC(=O)[C@H](Cc2cccs2)N1 [Compound 357] | – |
| > 100 | O=C1COc2ccc(cc2)C[C@@H](C(=O)O)NC(=O)[C@H](Cc2ccccc2)NC(=O)[C@H](Cc2ccc(Cl)cc2Cl)NC(=O)[C@H](Cc2cccs2)N1 [Compound 367] | – |
| 30 to 100 | O=C1CCC(=O)N[C@H](Cc2cccs2)C(=O)N[C@@H](Cc2ccc(-c3ccccc3)cc2)C(=O)N[C@H](CCc2ccccc2)C(=O)Nc2ccc(cc2)C[C@@H](C(=O)O)N1 [Compound 551] | – |
| 30 to 100 | O=C1CC(=O)N[C@H](Cc2cccs2)C(=O)N[C@@H](Cc2ccc(-c3ccccc3)cc2)C(=O)N[C@H](Cc2ccccc2)C(=O)N[C@H](C(=O)O)Cc2ccc(cc2)N1 [Compound 5] ([d2Thi][Bip][dF][Phe(4-NH2)]-OH; linker N-4 via Malonyl) | – |
| > 100 | O=C1COc2ccc(cc2)C[C@@H](C(=O)O)NC(=O)[C@H](Cc2cccc(F)c2)NC(=O)[C@@H](Cc2ccc(-c3ccccc3)cc2)NC(=O)[C@H](Cc2cccs2)N1 [Compound 626] | – |
| 30 to 100 | O=C1COc2ccc(cc2)C[C@@H](C(=O)O)NC(=O)[C@@H](CCc2ccccc2)NC(=O)[C@H](Cc2ccc(-c3ccccc3)cc2)NC(=O)[C@@H](Cc2ccc(C(F)(F)F)cc2)N1 [Compound 150] | – |
| > 100 | O=C(O)[C@@H]1Cc2ccc(cc2)NC(=O)[C@H](O)[C@@H](O)C(=O)N[C@H](c2ccccc2)C(=O)N[C@@H](Cc2ccc(-c3ccccc3)cc2)C(=O)N[C@H](Cc2ccccc2)C(=O)N1 [Compound 312] | – |
| 10 to 30 | O=C1CCC(=O)N[C@H](CCc2ccccc2)C(=O)N[C@@H](Cc2ccc(C(F)(F)F)cc2)C(=O)N[C@H](Cc2ccccc2Cl)C(=O)N[C@H](C(=O)O)Cc2ccc(cc2)N1 [Compound 226] ([d(hPhe)][Phe(4-CF3)][dPhe(2-Cl)][Phe(4-NH2)]-OH; linker N-4 via Suc) | – |
| 30 to 100 | O=C1CCC(=O)N[C@H](Cc2ccccc2Cl)C(=O)N[C@@H](Cc2ccc(C(F)(F)F)cc2)C(=O)N[C@H](Cc2ccccc2)C(=O)N[C@H](C(=O)O)Cc2ccc(cc2)N1 [Compound 132] ([dPhe(2-Cl)][Phe(4-CF3)][dF][Phe(4-NH2)]-OH; linker N-4 via Suc) | – |
| > 100 | O=C1CCC(=O)N[C@H](Cc2cccs2)C(=O)N[C@@H](Cc2ccc(-c3ccccc3)cc2)C(=O)N[C@@H](Cc2ccncc2)C(=O)N[C@H](C(=O)O)Cc2ccc(cc2)N1 [Compound 49] ([d2Thi][Bip][4Pal][Phe(4-NH2)]-OH; linker N-4 via Suc) | – |
| > 100 | O=C1COc2ccc(cc2)C[C@H](C(=O)O)NC(=O)[C@H](Cc2c[nH]c3ccccc23)NC(=O)[C@@H](Cc2ccc(-c3ccccc3)cc2)NC(=O)[C@H](Cc2ccncc2)N1 [Compound 732] | – |
